{"source": "patent US20230391758A1", "about": "“MODIFIED BENZOFURAN-CARBOXAMIDES AS GLUCOSYLCERAMIDE SYNTHASE INHIBITORS” (MERCK SHARP & DOHME CORP., priority 2020, published 2023)", "target": "GCS enzyme (glucosylceramide synthase) contained within Golgi preparations isolated from human A375 malignant melanoma skin cells (Homo sapiens (Human), UniProt Q16739)", "sequence (Q16739 whole entry)": "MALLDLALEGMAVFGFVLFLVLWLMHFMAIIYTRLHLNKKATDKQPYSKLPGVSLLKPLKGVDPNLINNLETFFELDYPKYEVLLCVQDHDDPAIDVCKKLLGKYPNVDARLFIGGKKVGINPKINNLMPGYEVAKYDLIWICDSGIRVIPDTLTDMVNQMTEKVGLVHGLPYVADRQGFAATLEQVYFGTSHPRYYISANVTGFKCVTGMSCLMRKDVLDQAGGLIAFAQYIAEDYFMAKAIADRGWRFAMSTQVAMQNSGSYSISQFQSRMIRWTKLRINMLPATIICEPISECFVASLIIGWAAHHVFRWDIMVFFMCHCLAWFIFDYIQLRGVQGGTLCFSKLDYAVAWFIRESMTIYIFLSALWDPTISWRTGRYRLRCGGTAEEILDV", "test": "UDP-Glo glucosylceramide synthase biochemical assay", "conditions": "1.5 μg crude golgi preparation from A375 cells; C6 ceramide and UDP-glucose at 2×Km; 20 h incubation at room temperature; UDP detected by luminescence", "text": "UDP-Glo™ Glucosylceramide Synthase Biochemical Assay\nA UDP-Glo™ glucosylceramide synthase biochemical assay was utilized to evaluate the effect of test compounds on the activity of endogenous levels of GCS enzyme contained within Golgi preparations isolated from human A375 malignant melanoma skin cells. The UDP-Glo™ glucosylceramide synthase assay uses UDP-Glucose as a nucleotide-glycosyl donor and ceramide as substrate acceptor molecules. In the reaction, glucosylceramide synthase (GCS) transfers glucose from UDP-Glucose to ceramide. Glucosylceramide and UDP are released as products.\nUsing Promega's UDP-Glo™ Glycosyltransferase assay kit (Promega Corporation, Madison, WI, USA (Promega)), GCS activity was indirectly measured by detecting the amount of UDP produced. An aliquot of GCS enzyme (1.5 μg crude golgi preparation, total protein) and titrated test compound were aliquoted to each well and incubated for 30 minutes at room temperature. Substrate mixture was prepared by mixing C6 ceramide (Avanti Polar Lipids, Alabaster, AL USA (Avanti)) (micelles prepared at 0.6 mM in 0.6 mM DOPC) and UDP-glucose (20 μ.M; Promega), at concentrations equivalent to 2×Km, in assay buffer (25 mM HEPES (pH 7.5), 50 mM KCl, 5 mM MgCl2). An equivalent volume of substrate mixture was then added to each well. Following a 20 h incubation at room temperature to allow for GCS turnover of substrate, an equal volume of UDP detection reagent (Promega) was added to each well and incubated for an additional 75 minutes at room temperature to simultaneously convert the accumulated UDP product into ATP and generate light in a luciferase reaction. The generated light was detected using a luminometer. […] luminescence values (RLUs) were normalized to mean “min” and “max” effects, as determined on each plate. “Min” was defined as the mean of the values of the wells treated with vehicle (DMSO) and which represent 0% inhibition; “max” was defined as the mean of the values of the wells treated with a reference inhibitor and which represent the 100% effect. Values for % Emax and EC50 were determined by best-fitting the normalized data to a curve in Activity Base along a four-parameter logistic nonlinear regression (4PL) model (based on the Levenberg-Marquardt algorithm and defined by the equation below): […]\nwhere: n is 4PMin (bottom of the curve); m is 4PMax (top of the curve); i is IP (inflection point of curve); and p is slope. See Levenberg, K., “A Method for the Solution of Certain Problems in Least Squares”, Quart. Appl. Math. 2, (1944), pp 164-168 and Marquardt, D., “An Algorithm for Least Squares Estimation on Nonlinear Parameters”, SIAM J. Appl. Math. 11, (1963) pp 431-441."}
{"smiles": "CCCOc1ccccc1-c1cccc2cc(C(=O)NC3CCNCC3(F)F)oc12", "note": "(single isomer, unassigned) [Compound 18, N-[(4R or 4S)-3,3-difluoro-4-piperidyl]-7-(2-propoxyphenyl)benzofuran-2-carboxamide]", "values": [{"measurement": "EC50", "result": 140, "unit": "nM"}]}
{"smiles": "C[C@]1(NC(=O)c2cc3cc(F)cc(-c4ccccc4OCC(F)(F)F)c3o2)CC[C@H](O)CC1", "note": "[Compound 27, Cis or trans-5-fluoro-N-(4-hydroxy-1-methyl-cyclohexyl)-7-[2-(2,2,2-trifluoroethoxy)phenyl] benzofuran-2-carboxamide]", "values": [{"measurement": "EC50", "result": 0.24, "unit": "nM"}]}
{"smiles": "COc1ccc(C#N)cc1-c1cccc2cc(C(=O)N[C@@H]3CC[C@H](O)C3)oc12", "note": "[Compound 19, 7-(5-cyano-2-methoxyphenyl)-N-((1R,3S)-3-hydroxycyclopentyl)benzofuran-2-carboxamide]", "values": [{"measurement": "EC50", "result": 0.26, "unit": "nM"}]}
{"smiles": "Cc1cccc(NC(=O)c2cc3cccc(-c4c(C)nn(C)c4C)c3o2)n1", "note": "[Compound 12, N-(6-methyl-2-pyridyl)-7-(1,3,5-trimethylpyrazol-4-yl)benzofuran-2-carboxamide]", "values": [{"measurement": "EC50", "result": 21, "unit": "nM"}]}
{"smiles": "CC(C)Oc1ccc(C#N)cc1-c1cc(F)cc2cc(C(=O)NC(C)(C)CO)oc12", "note": "[Compound 29, 7-(5-cyano-2-isopropoxy-phenyl)-5-fluoro-N-(2-hydroxy-1,1-dimethyl-ethyl)benzofuran-2-carboxamide]", "values": [{"measurement": "EC50", "result": 0.82, "unit": "nM"}]}
{"smiles": "O=C(NC1CNCCC1(F)F)c1nc2cccc(-c3ccccc3OCC(F)(F)F)c2o1", "note": "(racemic) [Compound 39, (R and S)-N-(4,4-difluoropiperidin-3-yl)-7-(2-(2,2,2-trifluoroethoxy)phenyl)benzo[d]oxazole-2-carboxamide]", "values": [{"measurement": "EC50", "result": 44, "unit": "nM"}]}
